According to patent publication EP0070049A1, “Derivative of acetylsalicylic acid having an analgetic, antipyretic, antiphlogistic and bronchosecretolytic activity” (UNIONE CHIMICA MEDICAMENTI- DIFME-S.p.A., priority 1981, dated 1983):

Assay: Acute oral toxicity (DL50, Lichtfield et al)
Parameters: species or system rats
Conditions: rat, in vivo
From the text: La toxicité aiguë de l'acétylsalicylate de 2(o-méthoxy--phénoxy)éthanol a été évaluée en comparaison avec celle de l'acide acétylsalicylique et exprimée comme dose DL50 (la dose qui provoque la mort du 50% des animaux traités) en mg/kg de poids corporel des rats auxquels la substance a été administrée par voie orale. Les résultats de l'élaboration statistique suivant la méthode décrite par J.T.Lichtfield et al (J. Pharm. Exp. Ther., volume 96, page 99, 1949) donnent les suivantes valeurs de la dose toxique DLSO et, entre parenthèses, de son intervalle fiducial (valeurs minimale et maximale relevées): • acide acétylsalicylique 1400 (1207 1580) • acétylsalicylate de • 2(o-méthoxy-phénoxy)éthanol 2934 (2696 3098)

## COc1ccccc1OCCOC(=O)c1ccccc1OC(C)=O [acétylsalicylate de 2(o-méthoxy-phénoxy)éthanol]
  LD50: 2930 mg/kg
